Experimental data from the NIST ThermoML archive (doi:10.1021/acs.jced.5b00710).
± gives the expanded uncertainty stated by the source.

Test: an = ratio of the nth substance listed
Conditions: 298.15 K; 101 kPa; Liquid; Cone and plate viscometry; a1 = 1

`CCCCCCCCCCCCCC[P+](CCCCCC)(CCCCCC)CCCCCC.O=S(=O)([N-]S(=O)(=O)C(F)(F)F)C(F)(F)F` + NCCO showed a viscosity of 90 ± 2 mPa·s.
